From US20260217704A1, “INDOLONE DERIVATIVE HAVING IRAK4 INHIBITORY ACTIVITY, AND PREPARATION METHOD THEREFOR AND USE THEREOF” (DOVETREE MEDICINES UNUS, INC., priority 2023, published 2026)

target: T1, IRAK4 kinase protein (Homo sapiens, UniProt Q9NWZ3); experiment: IRAK4 kinase inhibition assay (Cisbio HTRF KinEASE-STK S1 kit); format: biochemical; details: IRAK4 10 nM, ATP 200 μM, 37° C. 2 hours, read-out: IRAK4 inhibitory activity IC50
T1 sequence (Q9NWZ3 1-460): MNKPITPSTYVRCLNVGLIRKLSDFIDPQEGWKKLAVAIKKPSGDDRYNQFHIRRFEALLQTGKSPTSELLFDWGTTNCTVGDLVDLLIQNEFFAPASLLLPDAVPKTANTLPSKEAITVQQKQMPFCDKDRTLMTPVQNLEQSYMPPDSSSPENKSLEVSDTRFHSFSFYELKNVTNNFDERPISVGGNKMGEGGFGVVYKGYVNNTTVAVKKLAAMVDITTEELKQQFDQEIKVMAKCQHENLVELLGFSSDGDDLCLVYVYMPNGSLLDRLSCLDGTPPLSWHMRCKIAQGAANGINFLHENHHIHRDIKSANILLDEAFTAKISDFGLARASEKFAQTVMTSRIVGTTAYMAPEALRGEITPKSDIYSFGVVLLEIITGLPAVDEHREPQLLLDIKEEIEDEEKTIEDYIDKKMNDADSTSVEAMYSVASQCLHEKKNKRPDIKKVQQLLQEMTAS
Description: Cisbio HTRF KinEASE-STK SI kit (62S1PEB) was used in this experiment. The experiment/detection buffer, STK Substrate 1-biotin, Streptavidin-XL665, and STK Antibody-Crypatete were all contained in the kit.
The compound/DMSO was added to a 384 plate (PerkinElmer 6008280) using Echo 665. Subsequently, 5 μL of IRAK4 kinase protein dissolved in an experimental buffer [1 volume of 5×kinase buffer+20 mM magnesium chloride (Sigma) solution+1 mM DTT (Alfa Aesar) solution+4 volumes of deionized water] at 2 folds reaction concentration was added (final concentration: 10 nM). The shallow well plate was sealed, shaken, and then centrifuged at 1000 rpm for 1 minute and incubated at room temperature for 5 minutes. 5 μL of a 1:1 mixture of STK Substrate 1-biotin (final concentration: 1 μM) and ATP (Sigma A1852) (final concentration: 200 μM) at 2 folds reaction concentration prepared with the experimental buffer was then added. The shallow well plate was sealed, shaken, then centrifuged at 1000 rpm for 1 minute, and incubated at 37° C. for 2 hours. Subsequently, 10 μL of a 1:1 mixed solution of Streptavidin-XL665 (final concentration: 62.5 nM) and STK-antibody-cryptate dissolved with the detection buffer was added. The shallow well plate was sealed, shaken, then centrifuged at 1000 rpm for 1 minute, and incubated at room temperature for 1 hour. Subsequently, numerical values were read at the wavelength of 620 nm/665 nm by a microplate reader. The data were analyzed by Prism 9.3 software, and the IC50 value of IRAK4 kinase inhibition was fitted by four-parameter Logistic equation. After detection, the compound of the present disclosure has a better IRAK4 kinase inhibitory activity.

| Compound | IC50 [nM] |
| --- | --- |
| Cc1ccc(/C=C2/C(=O)Nc3ccc(S(=O)(=O)Nc4ccc(F)cc4)cc32)o1 [Compound 1] | > 1000 |
| CCNS(=O)(=O)c1ccc2c(c1)/C(=C\c1cc3cc(N4CCNCC4)ccc3o1)C(=O)N2 [Compound 4] | 100 to 500 |
| O=C1Nc2ccc(S(=O)(=O)Nc3ccc(F)cc3)cc2/C1=C/Nc1cnn2cc(N3CCNCC3)ccc12 [Compound 6] | 500 to 1000 |

Next, values leading:

| IC50 [nM] | Compound |
| --- | --- |
| 100 to 500 | O=C1Nc2ccc(S(=O)(=O)Nc3ccc(F)cc3)cc2/C1=C/c1cn(C2CCCCC2)nc1C(F)F [Compound 2] |
| < 100 | O=C1Nc2ccc(S(=O)(=O)Nc3ccc(F)cc3)cc2/C1=C\c1cc2cc(N3CCNCC3)ccc2o1 [Compound 3] |
| < 100 | O=C1Nc2ccc(S(=O)(=O)Nc3ccc(F)cc3)cc2/C1=C/Nc1cn(C2CCCCC2)nc1C(F)F [Compound 5] |
| < 100 | O=C1Nc2ccc(S(=O)(=O)Nc3ccc(F)cc3)cc2/C1=C/c1cc2ccc(N3CCNCC3)cc2[nH]1 [Compound 7] |
| < 100 | Cc1c(/C=C2\C(=O)Nc3ccc(S(=O)(=O)Nc4ccc(F)cc4)cc32)[nH]c2cc(N3CCNCC3)ccc12 [Compound 8] |
